Assay results taken from patent publication USRE38167E1, “Weight reduction method for cats and other pets” (International Flora Technologies Ltd, priority 1996, dated 2003).

Assay: Cat free-choice feeding study: daily food intake
Assay type: in vivo
Conditions: overweight cats
Method: All feeding studies were conducted from Feb. 26, 1998 to Sep. 17, 1998 at Summit Ridge Farms, Susquehanna, Pa. All were adult domestic short-haired cats. Most were quite old, as they had been in the colony 3 to 14 years and were thought to have been 1 to 4 years of age when they were obtained (Table 11). Just before beginning the study, all cats were given a thorough physical examination by a veterinarian. […] Each cat's current and estimated optimum weight were determined during this exam. […] All cats were housed individually with 12 hr light and dark cycles, and at a temperature of 60 to 85° F. and humidity of 30 to 70%. Food bowls, water bowls and litter boxes were emptied and sanitized daily. Water and the diet being fed were always available for free choice consumption except the night before the cats were to be weighed, when food bowls were removed. The amount of diet consumed was recorded, diet uneaten discarded and fresh diet fed daily. Weekly, following an overnight (14-hr) fast, each cat was weighed. Each cat was initially fed the non-jojoba containing diet FC-0 for 4 weeks, or until it was 14% or more over its estimated optimum weight, at which time it was fed either the diet containing 4% (FC-2) or 8% (FC-3) jojoba. Cats whose weight decreased by more than 4.6% in 1 week, or 6% in 2 weeks, were changed to the next lower jojoba-containing diet. […] When a cat was within 2.0% of its optimum weight, it was changed to a lower jojoba-containing diet; either that containing 2% or 4% (FC-1 or FC-2). If optimum body weight wasn't maintained when this diet was fed, the cat was changed to a higher jojoba-containing diet if it had gained weight and a lower jojoba-containing diet if it had lost weight. When the cat's weight had been maintained within 4% of its optimum for 4 weeks while eating the same diet, it was given a thorough physical exam by a veterinarian and removed from the study.

SMILES: CO[C@H]1[C@@H](OC)C[C@@H](O[C@@H]2O[C@H](CO)[C@@H](O)[C@H](O)[C@H]2O)/C(=C\C#N)[C@@H]1O [Simmondsin, simmondsin]
- Percent Decrease in Food Intake (0.12% bioactive simmondsin activity in diet): 17.8%
- Percent Decrease in Food Intake (0.24% bioactive simmondsin activity in diet): 30.7%
- Percent Decrease in Food Intake (0.49% bioactive simmondsin activity in diet): 45.9%
- Percent Decrease in Food Intake (0.73% bioactive simmondsin activity in diet): 49.2%
